{
  "source": "paper PMC11799239",
  "about": "“Mechanistic insights into Rho/MRTF inhibition-induced apoptotic events and prevention of drug resistance in melanoma: implications for the involvement of pirin” (Frontiers in Pharmacology, 2025)",
  "target": "T1, pirin (Homo sapiens, UniProt O00625)",
  "T1 construct": "gene PIR",
  "T1 sequence (O00625 1-290)": "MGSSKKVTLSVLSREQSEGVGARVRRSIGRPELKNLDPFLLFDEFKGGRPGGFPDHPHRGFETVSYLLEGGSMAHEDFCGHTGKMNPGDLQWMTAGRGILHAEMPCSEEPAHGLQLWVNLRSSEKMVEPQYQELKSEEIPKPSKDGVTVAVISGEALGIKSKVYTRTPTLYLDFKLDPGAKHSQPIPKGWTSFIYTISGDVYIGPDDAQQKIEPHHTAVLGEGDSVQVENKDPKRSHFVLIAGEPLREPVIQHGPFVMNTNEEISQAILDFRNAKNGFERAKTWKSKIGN",
  "experiment": "fluorescence polarization competition with a pirin FP reporter compound",
  "type": "binding",
  "conditions": "read-out: CCG-257081 (S enantiomer) [drawing 1]",
  "note": "pIC50: −log10 of the molar value.",
  "data": [
    {"smiles": "O=C(Nc1ccc(Cl)cc1)[C@@H]1CN(C(=O)c2cc(F)cc(-c3ccncc3)c2)CC(F)(F)C1", "note": "[(S) CCG-257081]", "values": [
      {"measurement": "pIC50", "value": 5.10}
    ]}
  ]
}
